# Assays:
# [1] = system: lipid peroxidation induced by lipopolysaccharide (LPS) in mice brain tissues; experiment: LPS-induced lipid peroxidation (TBARS/MDA) in mouse brain tissues; format: biochemical; conditions: C57BI/6J mouse brain
# [2] = system: toxic effect of LPS; conditions: laboratory animals; cited from earlier work
# [3] = system: septic shock; conditions: patients suffering from septic shock; cited from earlier work
# [4] = system: lipid peroxidation induced by lipopolysaccharide (LPS) in rat brain tissues; experiment: LPS-induced lipid peroxidation (TBARS/MDA) in rat brain homogenates; format: biochemical, Fisher 344N male rats; conditions: rat brain homogenate, LPS 400 μg/ml
# Protocol: N-acetyldopamine, melatonin, 2-thiobarbituric acid, and LPS (Escherichia coli 0127:B8) were purchased from Sigma Chemical Co. (St. Louis, Mo.). The formation of thiobarbituric acid reactive substances (TBARS) was used as index of induced oxidative damage to lipid membranes. Lipid peroxidation was induced with LPS (400 μg/ml).
# Brain tissues from Fisher 344N male rats were homogenized in 20 mM pH 7.4 Tris buffer. The homogenates were then incubated (1 hr) in solvent alone (control) or in solvent+LPS (400 μg/ml), N-acetyldopamine+LPS, NAS+LPS, melatonin+LPS, and N-acetyldopamine+NAS+LPS (for concentrations of N-acetyldopamine, NAS and melatonin, see Results). TBARS were added, and homogenates were incubated for 20 min. in a boiling water bath. After cooling, the absorbance was measured spectrophotometrically at 532 nm. TBARS concentrations were derived from a standard curve of MDA (Oxis International, Portland, Oreg.). Protein was determined by Lowry method (Sigma Chem. Co., St. Louis, Mo.). Results are expressed as mean+S.D. (n=6). Data was treated by one-way ANOVA and Student's t-test.
# [5] = system: lipid peroxidation induced by FeCl2 in mice brain tissues; experiment: FeCl2-induced lipid peroxidation (TBARS/MDA) in mouse brain tissues; format: biochemical, mice C57BI/J6; conditions: FeCl2 1 mM
# Protocol: The effect of N-substituted dopamine derivatives on FeCl2-induced oxidative damage was evaluated in mice C57BI/J6 brain tissues.
# Brain tissues from C57BI/J6 […] were homogenized in 20 mM pH 7.4 Tris buffer. The homogenates were then incubated (1 hr) in solvent alone (control) or in solvent+FeCl2, N-acetyldopamine+FeCl2, N-methyldopamine (deoxyepinephrine)+FeCl2, 3-methoxyldopamine+FeCl2, and 4-methoxydopamine (3-hydroxy-4-methoxy phenethylamine HCl)+FeCl2. TBARS were added, and homogenates were incubated for 20 min. in a boiling water bath. After cooling, the absorbance was measured spectrophotometrically at 532 nm. TBARS concentrations were derived from a standard curve of MDA (Oxis International, Portland, Oreg.). Protein was determined by Lowry method (Sigma Chem. Co., St. Louis, Mo.). Results are expressed as mean +S.D. (n=6). Data was treated by one-way ANOVA and Student's t-test
# [6] = system: LPS lethal effect; conditions: mice; cited from earlier work
# [7] = system: LPS-induced hypotensive shock; conditions: rats; cited from earlier work
smiles,measurement,setting,value
"COc1cc(CCN)ccc1O [3-methoxydopamine, 4-hydroxyl-3-methoxy phenethylamine]","effect on LPS-induced lipid peroxidation (MDA formation), in words",[1]; FIGS. 6-7,inhibited LPS-induced formation of MDA in C57BI/6J mouse brain in a dose-dependent manner
same,inhibition of LPS-induced formation of MDA,"[1]; at 200μ, FIG. 6",50%
"COc1ccc2[nH]cc(CCNC(C)=O)c2c1 [Melatonin, melatonin]",effect on toxic effect of LPS,[2],counteract the toxic effect of LPS
same,effect on lethality,[3],prevent lethality
same,concentration reaching statistically significant inhibition of LPS-induced lipid peroxidation,[4]; FIG. 3,800 µM
CC(=O)NCCc1ccc(O)c(O)c1 [N-acetyldopamine],concentration from which inhibition of LPS-induced formation of MDA starts,"[4]; 1 hr incubation, FIG. 1",50 µM
same,concentration reaching complete inhibition of LPS-induced formation of MDA,"[4]; 1 hr incubation, FIG. 1",200 µM
same,"effect on LPS-induced lipid peroxidation (MDA formation), in words",[4]; FIGS. 1-2,inhibited LPS-induced formation of MDA in a dose-dependent manner
"CNCCc1ccc(O)c(O)c1 [N-methyldopamine, N-methyldopamine (deoxyepinephrine)]",concentration from which inhibition of FeCl2-induced formation of MDA starts,[5]; FIG. 10,25 µM
same,concentration reaching complete inhibition of FeCl2-induced formation of MDA,[5]; FIG. 10,200 µM
same,"effect on FeCl2-induced formation of MDA, in words",[5]; FIGS. 8-12,most prominent effect
"CC(=O)NCCc1c[nH]c2ccc(O)cc12 [NAS, N-acetylserotonin]",protection against LPS lethal effect,[6],protects
same,protection against LPS-induced hypotensive shock,[7],protects rats against LPS-induced hypotensive shock
